# Assay results as given in patent US8241903B2, “Catecholamine receptor modulation” (Yeda Research and Development Co., Ltd., priority 2006, dated 2012).
# What was measured:
# [1] = tested on: cord blood CD34+ cells; test: Progenitor colony forming assay (CFU) in semi solid cultures; format: cell-based, human; conditions: for colony (CFU-C) formation in the presence of GM-CSF: IL-3 plus GM-CSF 5 ng/ml, scored day 14; for colony (CFU-C) formation in the presence of GM-CSF / colony formation, culture not supplemented with myeloid cytokines: SKF 1 μM or 7-OH-DPAT 100 nM; for colony formation, culture not supplemented with myeloid cytokines: no GM-CSF or G-CSF; for clonogenic capacity of human cord blood CD34+ cells: epinephrine 10 nM, norepinephrine 1 and 10 nM added to the methyl cellulose
# Procedure: (vii) Progenitor colony forming assay (CFU). In order to detect the levels of human progenitors, semisolid cultures were carried out as previously described (Peled et al. 1999). In brief, CD34^+ cells (1×10^3 cells/ml) were plated in 0.9% methylcellulose (Sigma), 30% FCS, 5×10^−5M 2ME, 50 ng/ml SCF, 5 ng/ml IL-3, 5 ng/ml GM-CSF (R&D), and 2 u/ml Erythropoietin (Orto Bio Tech, Don Mills, Canada) together with the dopamine agonists/antagonist. In some experiments the cells were pre-incubated for 4 days with the agonists/antagonist prior to plating in the semisolid culture. The cultures were incubated at 37° C. in a humidified atmosphere containing 5% CO2 and scored 14 days later for myeloid or erythroid colonies by morphologic criteria. In experiments where the level of in vivo engraftment by primitive human cells was determined, the semisolid media contained 15% human plasma and 15% FCS.
# GM-CSF and G-CSF are known for their role in myeloid differentiation and in stem cell regulation. It is common practice to add these cytokines to progenitor colony forming assay (CFU) in order to facilitate detection of human progenitors. […] We therefore tested whether up regulation of dopamine receptor levels affects progenitor development in vitro. For this purpose cord blood CD34^+ cells were seeded in semi solid cultures (1×10^3 cells/ml in 1 ml) supplemented with the cytokines Epo (2 u/ml; Orto Bio Tech, Don Mills, Canada.), SCF (50 ng/ml; R&D) and IL-3 (5 ng/ml R&D) and with GM-CSF (5 ng/ml; R&D) or G-CSF (100 ng/ml; Roche) in order to up regulate dopamine receptor levels. To evaluate the effect of increased dopamine receptor activity, the semi solid cultures were supplemented with dopamine agonist SKF (1 μM) or 7-OH-DPAT (100 nM) or with medium as a control.
# Next, the effect of the adrenergic neurotransmitters epinephrine (10 nM) and norepinephrine (1 and 10 nM) on proliferation of human CD34+ cells was assessed. The experimental conditions were similar to those conducted with the dopamine agonists. For colony assay, epinephrine and norepinephrine were added to the methyl cellulose. […] For engraftment assay, cells were incubated for 2 days in RPMI supplemented with GM-CSF 5 ng/ml.
# [2] = tested on: human CD34+ cells; test: Engraftment of ex-vivo treated human CD34+ cells in bone marrow of irradiated NOD/SCID mice; conditions: for engraftment in the murine BM compared to control cells: MPB CD34+ cells incubated 2-4 days with 1 μM SKF or 100 ng/ml 7-OH-DPAT before injection, human CD45 in BM 5 weeks post injection; for engraftment of human CD34+ cells in NOD/SCID mice: cord blood CD34+ cells incubated 2 days with GM-CSF 5 ng/ml with or without the neurotransmitter prior to injection
# Procedure: (ii) Mice. […] Eight-ten week old mice were sublethally irradiated (375 cGy, from a 60 Co source) and transplanted with human cells as indicated (2×10^5 cells/mouse) 24 hours post irradiation.
# (iii) Cell transplantation. Cells were injected into the tail vein of NOD/SCID in 0.5 ml of RPMI supplemented with 10% FCS.
# (iv) Assessment of cell engraftment. Recipient mice were irradiated with a sublethal (350 cGy) dose from a Cesium source 24 hours prior to injection of cells. MPB or CB CD34^+ cells (2-3×10^5/mouse) were treated with SKF or 7-OH-DPAT for 2-4 days and injected i.v. into NOD/SCID mice. Mice were sacrificed 5-6 weeks post transplantation of human cells for assessing human cell engraftment assessment. BM (femur, tibia and pelvis bones flushed with a syringe), spleen, and peripheral blood cells were harvested and resuspended into single cell suspensions. WBCs were counted and in some experiments MNCs were isolated from samples by standard separation on Ficol-Hypaque (Pharmacia Biotech). Human cell engraftment was assayed by flow cytometry (FACSCalibur, BD). Cells were triple-stained with CD45-FITC, CD38-PE and CD34-APC (Becton Dickinson) antibodies. Human plasma and mouse IgG were used to block Fc receptors. Human leukocytes were gated according to their expression of the pan-leukocyte marker CD45, and amongst this population the percentage of CD34^+/CD38^−/low primitive cells was determined.
# To assess the effect of dopamine receptor on engraftment of stem cells, mobilized peripheral blood (MPB) enriched human CD34^+ cells treated ex-vivo with the dopamine agonists SKF or 7-OH-DPAT were transplanted in NOD/SCID mice and engraftment of human cell in the murine BM was determined. Briefly, 1-3×10^5 MPB CD34^+ cells were incubated for 2-4 days at 37° C. in RPMI supplemented with 10% FCS, penicillin streptomycin and L-Glutamine and treated with the dopamine receptor agonists (1 μM) SKF or (100 ng/ml) 7-OH-DPAT or were left untreated. After the incubation, the cells were injected in irradiated NOD/SCID mice. The mice were sacrificed 5 weeks post injection, BM was extracted and the BM cells were labeled for the human CD45 marker.
# The experimental conditions were similar to those conducted with the dopamine agonists. […] For engraftment assay, cells were incubated for 2 days in RPMI supplemented with GM-CSF 5 ng/ml.
# [3] = tested on: BM cells; test: Bone marrow cellularity (WBC) after 5 daily i.p. injections in mice; format: in vivo; conditions: WBC on day 5, 4 hrs after last injection
# Procedure: For this purpose, mice were injected with 5 daily i.p injections of the dopamine agonist 7-OH-DPAT (1.5 mg/kg) or antagonist flupenthixol 5 (3 mg/kg) or remained untreated and the bone marrow cell mass was determined. On day 5, 4 hrs after last injection, mice were sacrificed, BM cells were flushed from BM (with a syringe), and White Blood Count (WBC) was determined.
# [4] = tested on: cord blood CD34+ cells; test: Polarization of CB CD34+ cells upon adhesion to hyaluronic acid; format: cell-based, human; conditions: CB CD34+ cells on HA-coated cover slips, 2 hours at 37° C.
# Procedure: Enriched CB CD34^+ cells (1×10^5 to 2×10^5 cells per well) were plated on HA-coated cover slips for 2 hours at 37° C., either untreated or treated with SKF or 7-OH-DPAT. Samples were processed for microscopic observation as described (Goichberg et al., 2001). In brief, the adherent cells were fixed with 3% paraformaldehyde (Merck, Darmstadt, Germany) and, if indicated, permeabilized in 0.5% Triton X-100 (Sigma-Aldrich). Samples were indirectly immunolabeled at room temperature in a humidified chamber with using purified polyclonal rabbit anti human Dopamine D5 antibodies (Calbiochem, Nottingham, UK) (MCAP89; Serotec). The secondary antibodies used were Goat anti rabbit Alexa 488 conjugated (Molecular Probes, Eugene Oreg.). Phalloidin—TRITC used to detect polymerized actin, was purchased from Sigma-Aldrich. Following labeling, cells were mounted in Elvanol (Mowiol 4-88, Hoechst, Frankfurt, Germany). Immunofluorescence images were acquired using scientific-grade CCD camera and processed by the Delta Vision system using Resolve 3D software (Applied Precision, Issaquah, Wash.).
# We assessed changes in morphology of cord blood CD34^+ cells upon adhesion to hyaluronic in the presence or the absence of the dopamine agonists SFK or 7-OH-DPAT.
# [5] = tested on: murine bone marrow mononuclear cells; test: Spontaneous migration of bone marrow mononuclear cells from treated mice; format: in vivo; conditions: cells from mice treated with G-CSF plus agonist compared to G-CSF alone
# [6] = tested on: human CD34+ cells
# Procedure: (viii) Chemotaxis assays. Chemotaxis experiments were assayed using transwells (6.5 mm diameter, 5 μm pore; Corning Inc., Corning, N.Y.) as previously described (1). […] Migrating cells were counted using FACSCalibur (Becton Dickinson).
# We tested the effect of dopamine (1 nM-1 uM) on in vitro migration potential of immature human CD34^+ cells (50,000-100,000 cells in 100 ul). […] Since dopamine is highly oxidative, its agonists were used, particularly in treatments requiring longer incubation periods (FIG. 6D).
# [7] = tested on: dopamine receptors 3 and 5 in CD34+/CD38-/low cells; test: In vitro 3-day incubation with GM-CSF, dopamine receptor staining; format: cell-based, human; conditions: 3-day incubation with GM-CSF 5 ng/ml; MPB, normal BM or cord blood cells
# Procedure: (§1) (vi) Flow cytometry analysis. Phenotypes of human and murine cells were examined by immunostaining, followed by flow cytometry analysis on FACSCalibur (Becton Dickinson, San Jose, Calif.) with CellQuest software. Single cell suspension were prepared in PBS containing 0.01% sodium azide and 1% FCS. Human plasma and mouse IgG were used to block human and murine Fc-receptors. Isotype-matched control antibodies were used to exclude false positive cells. Staining was performed in 4° C. for 30 minutes. Engraftment of human cells was examined by staining with mouse anti-human CD45-Fitc, CD38-PE and CD34-APC (Becton Dickinson). Human leukocytes were gated according to their expression of the pan-leukocyte marker CD45, and amongst this population the percentage of CD34+/CD38−/low primitive cells was determined. In several experiments dopamine receptor expression on CD34+/CD38−/low was tested, cells were triple stained with mouse anti-human CD38-PE, CD34-APC and rabbit anti human dopamine receptor 3 or 5 (Calbiochem, Nottingham, UK) followed by secondary antibodies goat anti rabbit alexa 488 (Molecular Probes, Eugene, Oreg.). After staining, cells were washed in FACS buffer and analyzed by fluorescence-activated cell sorting (FACSCalibur and CellQuest software, Becton Dickinson). […]
# [8] = tested on: dopamine receptors type 3 and 5 on the surface of CD34+ enriched cells; test: Flow cytometry of dopamine receptor expression on CD34+ cells from BM of G-CSF treated or untreated donors; format: in vivo, human; conditions: CD34+ cells from BM of G-CSF treated healthy donors vs BM of untreated healthy donors
# Source text: (i) Human cells and reagents. Human cord blood (CB), adult G-CSF mobilized peripheral blood (MPBL) and BM from normal or G-CSF treated donors mononuclear cells were obtained after informed consent in accordance with procedures approved by the human ethics committee of the Weizmann Institute of Science. The cell surface protein CD34 is frequently used as a marker for positive selection of human hematopoietic stem/progenitor cells in research and in transplantation. CD34^+ cell enrichment was performed using magnetic bead separation as previously described (Spiegel A et al Blood 2004; 2900-7). Cells were cultured in RPMI 1640 medium supplemented with 10% heat-inactivated FCS, antibiotics and glutamine.
# Human CB cells were obtained from full-term deliveries after informed consent. Blood samples were diluted 1:1 in PBS. […]
# (vi) Flow cytometry analysis. […] Human leukocytes were gated according to their expression of the pan-leukocyte marker CD45, and amongst this population the percentage of CD34+/CD38−/low primitive cells was determined. […] After staining, cells were washed in FACS buffer and analyzed by fluorescence-activated cell sorting (FACSCalibur and CellQuest software, Becton Dickinson).
# Expression of dopamine receptors type 3 and 5 was evaluated on the surface of CD34^+ enriched cells that were obtained from different sources. […]
# [9] = tested on: dopamine receptor 3 and 5 on human CD34+/CD38-/low cells; test: Dopamine receptor expression on human cells from BM of G-CSF treated chimeric NOD/SCID mice; format: in vivo, human cells in NOD/SCID mice; conditions: 5 daily s.c. injections of G-CSF
# Procedure: Mobilization in NOD/SCID mice engrafted with human cells was performed as follows: mice received a daily subcutaneous injection of G-CSF (Filgrastim, […] in […] 0.9% NaCl, 5% fetal calf serum (FCS), pH 4.55) for 5 consecutive days and were sacrificed 4 hrs after the last injection. Peripheral blood from mice asphyxied with dry ice was collected by cardiac aspiration in heparinized tubes. Number of WBC in the peripheral blood was determined.
# as §1, with “Engraftment of human cells was examined by staining with mouse anti-human CD45-Fitc, CD38-PE and CD34-APC (Becton Dickinson).” left out, “In several experiments dopamine receptor expression on CD34+/CD38−/low was tested, cells were triple stained with mouse anti-human CD38-PE, CD34-APC and rabbit anti human dopamine receptor 3 or 5 (Calbiochem, Nottingham, UK) followed by secondary antibodies goat anti rabbit alexa 488 (Molecular Probes, Eugene, Oreg.).” left out
# [10] = tested on: beta-2 adrenergic receptor on CD34+ cells; test: Flow cytometry of beta-2 adrenergic receptor on CD34+ cells; design: species or system human; conditions: in vivo G-CSF stimulated (mobilized) peripheral blood CD34+ cells
# Source text: We carried out experiments in order to test whether CD34+ cells are regulated by additional catecholamines neurotransmitters.
molecule,measurement,setting,value
"CCCN(CCC)C1CCc2ccc(O)cc2C1 (stereo not shown) [7-OH-DPAT, 7-hydroxy-2-dipropylaminotetralin]",colony formation in the presence of G-CSF,"[1]; CB CD34+ cells, Epo, SCF, IL-3 plus G-CSF 100 ng/ml, 7-OH-DPAT 100 nM",the largest increase
same,colony (CFU-C) formation in the presence of GM-CSF,"[1]; CB CD34+ cells, Epo, SCF",increased colony formation
same,"colony formation, culture not supplemented with myeloid cytokines",[1]; CB CD34+ cells,No increase
same,engraftment in the murine BM compared to control cells,[2],2 fold
same,increase in BM cellularity,[3]; 7-OH-DPAT 1.5 mg/kg,50%
same,percent of cells that exhibited polarized morphology compared to control,[4],more than doubled
same,spontaneous migration of murine bone marrow mononuclear cells,[5],higher spontaneous migration
CN1CCN(C2=Nc3cc(Cl)ccc3Nc3ccccc32)CC1 [clozapine],decrease in engraftment,"[2]; MPB CD34+ cells pretreated with antagonist prior to injection, 5 weeks",50%
CNC[C@H](O)c1ccc(O)c(O)c1 [epinephrine],clonogenic capacity of human cord blood CD34+ cells,[1],increase the clonogenic capacity
same,engraftment of human CD34+ cells in NOD/SCID mice,[2],enhance engraftment
NC[C@H](O)c1ccc(O)c(O)c1 [norepinephrine],clonogenic capacity of human cord blood CD34+ cells,[1],increase the clonogenic capacity
same,engraftment of human CD34+ cells in NOD/SCID mice,[2],enhance engraftment
same,migration of CD34+ cells towards norepinephrine in the lower well,"[6]; CB (GM-CSF pretreated) or MPB CD34+ cells, 1 or 10 nM norepinephrine",increased migration
"Cl.Oc1cc2c(cc1O)C(c1ccccc1)CNCC2 (single isomer, unassigned; (+)) [SKF, (+)-1-phenyl-2,3,4,5-tetrahydro(1H)-3-benzazepine-7,8-diol hydrochloride]",colony (CFU-C) formation in the presence of GM-CSF,"[1]; CB CD34+ cells, Epo, SCF",augmented
same,"colony formation, culture not supplemented with myeloid cytokines",[1]; CB CD34+ cells,No increase
same,engraftment in the murine BM compared to control cells,[2],2 fold
same,percent of cells that exhibited polarized morphology compared to control,[4],more than doubled
same,spontaneous migration of murine bone marrow mononuclear cells,[5],higher spontaneous migration
"GM-CSF: myeloid cytokine, granulocyte/macrophage-colony stimulating factor",levels of dopamine receptors 3 and 5 in CD34+/CD38-/low cells,[7],up regulated
NCCc1ccc(O)c(O)c1 [dopamine],migration of cord blood CD34+ enriched cells towards dopamine in the lower chamber,"[6]; cells pre-treated with GM-CSF, dopamine 10 nM (tested 1 nM-1 uM)",significantly increased
same,"migration of cord blood CD34+ cells towards dopamine, cells not pre-treated with GM-CSF","[6]; no GM-CSF pre-treatment, data not shown",not detected
"OCCN1CCN(CCC=C2c3ccccc3Sc3ccc(C(F)(F)F)cc32)CC1 [flupenthixol, 2-[4-[3-[2-(trifluoromethyl)thioxanthen-9-ylidene]propyl]piperazin-1-yl]ethanol]",decrease in BM cellularity,[3]; flupenthixol 3 mg/kg,25%
"G-CSF: myeloid cytokine, granulocyte colony-stimulating factor (Filgrastim, Roche) (protein, chains of the INN, looked up) MTPLGPASSLPQSFLLKCLEQVRKIQGDGAALQEKLCATYKLCHPEELVLLGHSLGIPWAPLSSCPSQALQLAGCLSQLHSGLFLYQGLLQALEGISPELGPTLDTLQLDVADFATTIWQQMEELGMAPALQPTQGAMPAFASAFQRRAGGVLVASHLQSFLEVSYRVLRHLAQP","expression of dopamine receptor on the surface of enriched CD34+ cells, higher than untreated donors",[8],2-4 folds
same,level of dopamine receptor expression in the CD34+/CD38-/low cell population,[9],increase
same,levels of β2-adrenergic receptor on CD34+ cells,[10],higher levels
